Tested on: subjects with moderate-to-severe plaque psoriasis
Test: Safety, adverse events, Example 2 through Week 56
Assay type: in vivo, human
Excerpt: The LTE safety analysis was based on randomized participants in Example who entered the present long-term extension study and received at least one dose of study intervention (including a partial dose) during the study period.

[1] = Placebo → 100 mg QD after crossover, through Week 56
[2] = Placebo → 100 mg QD, Week 16 through Week 56
[3] = Placebo → 100 mg QD, LTE Safety analysis set

CC(=O)NCCCC[C@@H]1NC(=O)[C@H](Cc2c[nH]c3c(C)cccc23)NC(=O)[C@H]([C@@H](C)O)NC(=O)[C@H](CC(N)=O)NC(=O)[C@@H](NC(C)=O)C(C)(C)SSC(C)(C)[C@@H](C(=O)N[C@@H](Cc2ccc(OCCN)cc2)C(=O)N[C@@H](Cc2ccc3ccccc3c2)C(=O)NC2(C(=O)N[C@@H](CCC(=O)O)C(=O)N[C@@H](CC(N)=O)C(=O)N[C@@H](Cc3cccnc3)C(=O)N(C)CC(N)=O)CCOCC2)NC1=O [IL-23 receptor antagonist peptide, Ac-[Pen]*-N-T-[W(7-Me)]-[Lys(Ac)]-[Pen]*-Phe[4-(2-aminoethoxy)]-[2-Nal]-[THP]-E-N-[3-Pal]-Sarc-NH2 (*[Pen]-[Pen]* formdisulfidebond)]
0: Subjects with 1 or more treatment-emergent adverse events leading to discontinuation of study agent [1] | Subjects with AE leading to discontinuation: Abdominal discomfort [1] | Subjects with AE leading to discontinuation: Abdominal pain [1] | Subjects with AE leading to discontinuation: Alanine aminotransferase increased [1] | Subjects with AE leading to discontinuation: Aspartate aminotransferase increased [1] | Subjects with AE leading to discontinuation: Asthenia [1] | Subjects with AE leading to discontinuation: Chills [1] | Subjects with AE leading to discontinuation: Ear and labyrinth disorders [1] | Subjects with AE leading to discontinuation: Gamma-glutamyltransferase increased [1] | Subjects with AE leading to discontinuation: Gastrointestinal disorders [1] | Subjects with AE leading to discontinuation: General disorders and administration site conditions [1] | Subjects with AE leading to discontinuation: Headache [1] | Subjects with AE leading to discontinuation: Insomnia [1] | Subjects with AE leading to discontinuation: Investigations [1] | Subjects with AE leading to discontinuation: Nausea [1] | Subjects with AE leading to discontinuation: Nervous system disorders [1] | Subjects with AE leading to discontinuation: Proctalgia [1] | Subjects with AE leading to discontinuation: Psoriasis [1] | Subjects with AE leading to discontinuation: Psychiatric disorders [1] | Subjects with AE leading to discontinuation: Skin and subcutaneous tissue disorders [1] | Subjects with AE leading to discontinuation: Suicide attempt [1] | Subjects with AE leading to discontinuation: Transaminases increased [1] | Subjects with AE leading to discontinuation: Vertigo [1] | Subjects with AE leading to discontinuation: Vomiting [1] | Subjects with AE leading to discontinuation: Weight increased [1] | Subjects with treatment-emergent AE: Cough [1] | Subjects with treatment-emergent AE: Headache [1] | Subjects with treatment-emergent serious AE: COVID-19 [1] | Subjects with treatment-emergent serious AE: Cardiac disorders [1] | Subjects with treatment-emergent serious AE: Coronary artery disease [1] | Subjects with treatment-emergent serious AE: Diverticulitis [1] | Subjects with treatment-emergent serious AE: Foot deformity [1] | Subjects with treatment-emergent serious AE: General disorders and administration site conditions [1] | Subjects with treatment-emergent serious AE: Infected cyst [1] | Subjects with treatment-emergent serious AE: Infections and infestations [1] | Subjects with treatment-emergent serious AE: Injury, poisoning and procedural complications [1] | Subjects with treatment-emergent serious AE: Intervertebral disc protrusion [1] | Subjects with treatment-emergent serious AE: Ligament injury [1] | Subjects with treatment-emergent serious AE: Musculoskeletal and connective tissue disorders [1] | Subjects with treatment-emergent serious AE: Neoplasms benign, malignant and unspecified (incl cysts and polyps) [1] | Subjects with treatment-emergent serious AE: Non-cardiac chest pain [1] | Subjects with treatment-emergent serious AE: Psychiatric disorders [1] | Subjects with treatment-emergent serious AE: Respiratory, thoracic and mediastinal disorders [1] | Subjects with treatment-emergent serious AE: Suicide attempt [1] | Subjects with treatment-emergent serious AE: Tonsillar hypertrophy [1] | Subjects with treatment-emergent serious AE: Uterine leiomyoma [1] | Subjects with treatment-emergent serious AE: Ventricular dysfunction [1] | Number of subjects with treatment-emergent AE: Cholelithiasis [2] | Number of subjects with treatment-emergent AE: Ear and labyrinth disorders [2] | Number of subjects with treatment-emergent AE: Endocrine disorders [2] | Number of subjects with treatment-emergent AE: Eyelid skin dryness [2] | Number of subjects with treatment-emergent AE: Goiter [2] | Number of subjects with treatment-emergent AE: Immune system disorders [2] | Number of subjects with treatment-emergent AE: Insomnia [2] | Number of subjects with treatment-emergent AE: Psychiatric disorders [2] | Number of subjects with treatment-emergent AE: Seasonal allergy [2] | Number of subjects with treatment-emergent AE: Vertigo [2] | Subjects who discontinued study agent because of 1 or more adverse events [3] | Subjects with 1 or more Serious Infections and infestations [3] | Subjects with adverse event: Headache [3] | Subjects with adverse event: Meniscus injury [3] | Subjects with adverse event: Sinusitis [3] | Subjects with adverse event: Vomiting [3] | Subjects with serious adverse event: Coronary artery disease [3] | Subjects with serious adverse event: Diverticulitis [3] | Subjects with serious adverse event: Foot deformity [3] | Subjects with serious adverse event: Intervertebral disc protrusion [3] | Subjects with serious adverse event: Ligament injury [3] | Subjects with serious adverse event: Non-cardiac chest pain [3] | Subjects with serious adverse event: Tonsillar hypertrophy [3] | Subjects with serious adverse event: Uterine leiomyoma [3]
7: Vascular disorders: number of subjects (Combined, through Week 56)
(0.4%): Skin laceration: % of subjects (Combined, through Week 56) | Social circumstances: % of subjects (Combined, through Week 56) | Steatohepatitis: % of subjects (Combined, through Week 56) | Suicide attempt: % of subjects (Combined, through Week 56) | Sunburn: % of subjects (Combined, through Week 56) | Thrombocytopenia: % of subjects (Combined, through Week 56) | Thrombocytosis: % of subjects (Combined, through Week 56) | Tonsillar hypertrophy: % of subjects (Combined, through Week 56) | Tooth fracture: % of subjects (Combined, through Week 56) | Type 2 diabetes mellitus: % of subjects (Combined, through Week 56) | Urinary tract disorder: % of subjects (Combined, through Week 56) | Uterine leiomyoma: % of subjects (Combined, through Week 56) | Ventricular dysfunction: % of subjects (Combined, through Week 56) | Vitamin D deficiency: % of subjects (Combined, through Week 56)
1: Skin laceration: number of subjects (Combined, through Week 56) | Social circumstances: number of subjects (Combined, through Week 56) | Steatohepatitis: number of subjects (Combined, through Week 56) | Suicide attempt: number of subjects (Combined, through Week 56) | Sunburn: number of subjects (Combined, through Week 56) | Thrombocytopenia: number of subjects (Combined, through Week 56) | Thrombocytosis: number of subjects (Combined, through Week 56) | Tonsillar hypertrophy: number of subjects (Combined, through Week 56) | Tooth fracture: number of subjects (Combined, through Week 56) | Type 2 diabetes mellitus: number of subjects (Combined, through Week 56) | Urinary tract disorder: number of subjects (Combined, through Week 56) | Uterine leiomyoma: number of subjects (Combined, through Week 56) | Ventricular dysfunction: number of subjects (Combined, through Week 56) | Vitamin D deficiency: number of subjects (Combined, through Week 56) | Number of subjects with treatment-emergent AE: Hepatobiliary disorders [2] | Number of subjects with treatment-emergent AE: Hypertransaminasemia [2] | Number of subjects with treatment-emergent AE: Ocular cyst [2] | Number of subjects with treatment-emergent AE: Retinal vein occlusion [2]
(2.9%): Subjects with treatment-emergent AE: Hepatobiliary disorders (%) [2] | Subjects with treatment-emergent AE: Hypertransaminasemia (%) [2] | Subjects with treatment-emergent AE: Ocular cyst (%) [2] | Subjects with treatment-emergent AE: Retinal vein occlusion (%) [2]
(6.5%): Skin and subcutaneous tissue disorders: % of subjects (Combined, through Week 56)
16: Skin and subcutaneous tissue disorders: number of subjects (Combined, through Week 56)
9: Subjects with treatment-emergent AE: Nasopharyngitis [1] | Subjects with adverse event: Nasopharyngitis [3]
(5.7%): Subjects with treatment-emergent AE: Eye disorders (%) [2]
(0.8%): Skin papilloma: % of subjects (Combined, through Week 56) | Vertigo: % of subjects (Combined, through Week 56)
(2.8%): Vascular disorders: % of subjects (Combined, through Week 56)
no deaths: Deaths (LTE study period)
2: Seasonal allergy: number of subjects (Combined, through Week 56) | Skin papilloma: number of subjects (Combined, through Week 56) | Vertigo: number of subjects (Combined, through Week 56) | Number of subjects with treatment-emergent AE: Eye disorders [2]
